Assay results as given in patent US20250271419A1, “PLACENTA ORGANOID ON-A-CHIP AND USE THEREOF” (THE REGENTS OF THE UNIVERSITY OF CALIFORNIA, priority 2024, published 2025).
Like-named read-outs stand apart in the source and are kept apart here.

Assays:
[1] = tested on: day 7 placental organoids; assay: Drug toxicity response, CellTiter-Glo luminescent cell viability, day 7 placental organoids; conditions: Homo sapiens, read-out: IC50 (drug toxicity based on cell survival)
Description: It is well-established that ethical constraints hamper the testing of drugs on pregnant women. Furthermore, maternal drug usage is known to promote a range of conditions, such as fetal drug tolerance, antibiotic resistance, toxicity, obesity and diabetes. While it is rendered safe to use certain drugs during pregnancy, the actual short as well as long-term effects of these drugs on fetal health cannot be currently studied. Therefore, as an application of the placental organoids systems in drug toxicity testing, these organoids were treated with commonly used compounds such as nicotine, acetaminophen, ibuprofen and lumiracoxib. […] Acetaminophen, also known as paracetamol, is usually considered as a safe antipyretic and analgesic medicine for pregnant women. However, acetaminophen and its metabolites easily cross the placenta and are potentially toxic as it has previously been detected in the fetus and is implicated in adverse birth and later life health outcomes. Nonsteroidal anti-inflammatory drugs (NSAIDs) such as Ibuprofen are the most commonly used medications for the treatment of pain, inflammation and fever during pregnancy. Ibuprofen readily enters fetal circulation, raising concerns about its long-term effects on fetal health and development. While the use of another NSAID, Lumiracoxib, has not been adequately investigated. […] Therefore, it has been recommended that it should not be used during the first two trimesters of pregnancy unless it justifies the potential risk to the fetus. Day 7and day 15 placental organoids were treated with increasing doses of drugs such as nicotine, acetaminophen, ibuprofen and lumiracoxib. The drug toxicity and IC50 value of the drugs was determined based on cell survival at 24 and 48 hours post drug exposure.
Placental organoids (12-15 organoids/well) were treated with different concentrations of nicotine (0.1, 0.5, 1, 5, 10, 20 mg/mL), acetaminophen (0.01, 0.1, 1, 5, 10, 20 mM), ibuprofen (25, 50, 100, 200, 400, 800 mg/mL) and lumiracoxib (0.01, 0.1, 1, 5, 10, 20 mM) for 24 and 48 hours to determine the IC50 value for drug toxicity. Post-incubation with the drugs for 24 and 48 hours respectively, the cell viability was determined using a CellTiter-Glo Luminescent cell viability assay (Promega #G7570). Briefly, cell supernatant was mixed with equal volume of CellTiter-Glo reagent for 2 minutes on an orbital shaker, incubated for 10 minutes in dark at room temperature and then the luminescence was determined using a Tecan plate reader (Tecan Spark).

[2] = crosses the placental barrier; cited from earlier work

Compound	IC50 ([1]; 24 hours post drug exposure)	IC50 ([1]; 48 hours post drug exposure)	fetal concentration higher than mother [2] [%]
CC(=O)Nc1ccc(O)cc1 [acetaminophen]	2680 µM	1110 µM	
CC(C)Cc1ccc(C(C)C(=O)O)cc1 (centres unmarked) [ibuprofen]		45300 µg/mL	
Cc1ccc(Nc2c(F)cccc2Cl)c(CC(=O)O)c1 [lumiracoxib]	841 µM	220 µM	
CN1CCCC1c1cccnc1 (centres unmarked) [nicotine]	5700 µg/mL	1190 µg/mL	15
